Test results as given in the supplement of paper PMC11061612.

Key:
Test in all cases: Bliss excess, mean over the matrix (fraction); higher = more synergy
NCI-H2818 (Mesothelioma) = tested on: NCI-H2818 (Mesothelioma)
Method in brief: (§1)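 Bliss excess equals the observed combination effect minus the expected value EA + EB − EA·EB, where EA and EB are the effects of each agent alone. Combination Emax is the second-highest inhibition within the matrix. Inhibition was scaled from CellTiter-Glo 2.0 luminescence, with 0 set by vehicle wells and 1 by blank wells, after 72 hours of two-drug dosing of cells plated in 1536-well plates.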

[1] = tested on: SW1417 (Colorectal Carcinoma)
Method in brief: as §1

[2] = tested on: SW837 (Colorectal Carcinoma)
Method in brief: as §1

MEL-JUSO (Melanoma) = tested on: MEL-JUSO (Melanoma)
Method in brief: as §1

[3] = tested on: DiFi (Colorectal Carcinoma)
Method in brief: as §1

[4] = tested on: KCL-22 (Chronic Myelogenous Leukemia)
Method in brief: as §1

WM-115 (Melanoma) = tested on: WM-115 (Melanoma)
Method in brief: as §1

[5] = tested on: TE-6 (Esophageal Squamous Cell Carcinoma)
Method in brief: as §1

[6] = tested on: NCI-H847 (Small Cell Lung Carcinoma)
Method in brief: as §1

[7] = tested on: SU-DHL-8 (B-Cell Non-Hodgkin's Lymphoma)
Method in brief: as §1

[8] = tested on: MKN28 (Gastric Carcinoma)
Method in brief: as §1

[9] = tested on: L-540 (Hodgkin's Lymphoma)
Method in brief: as §1

[10] = tested on: COLO-678 (Colorectal Carcinoma)
Method in brief: as §1

[11] = tested on: EVSA-T (Breast Carcinoma)
Method in brief: as §1

[12] = tested on: P12-ICHIKAWA (T-Lymphoblastic Leukemia)
Method in brief: as §1

[13] = tested on: KARPAS-45 (T-Lymphoblastic Leukemia)
Method in brief: as §1

[14] = tested on: HDQ-P1 (Breast Carcinoma)
Method in brief: as §1

[15] = tested on: BL-41 (Burkitt's Lymphoma)
Method in brief: as §1

[16] = tested on: CAMA-1 (Breast Carcinoma)
Method in brief: as §1

[17] = tested on: MFM-223 (Breast Carcinoma)
Method in brief: as §1

| SMILES | Bliss excess (NCI-H2818 (Mesothelioma)) | Bliss excess [1] | Bliss excess [2] | Bliss excess (MEL-JUSO (Melanoma)) | Bliss excess [3] | Bliss excess [4] | Bliss excess (WM-115 (Melanoma)) | Bliss excess [5] | Bliss excess [6] | Bliss excess [7] | Bliss excess [8] | Bliss excess [9] | Bliss excess [10] | Bliss excess [11] | Bliss excess [12] | Bliss excess [13] | Bliss excess [14] | Bliss excess [15] | Bliss excess [16] | Bliss excess [17] |
| --- | --- | --- | --- | --- | --- | --- | --- | --- | --- | --- | --- | --- | --- | --- | --- | --- | --- | --- | --- | --- |
| CC1(C)CCC(CN2CCN(c3ccc(C(=O)NS(=O)(=O)c4ccc(NCC5CCOCC5)c([N+](=O)[O-])c4)c(Oc4cnc5[nH]ccc5c4)c3)CC2)=C(c2ccc(Cl)cc2)C1 [Venetoclax] + CCN(CCO)CCCOc1ccc2c(Nc3cc(CC(=O)Nc4cccc(F)c4)[nH]n3)ncnc2c1 [AZD2811] (first compound max 1 µM, 7x7, partner max 1 µM) | -0.0404 | -0.0567 | 0.0166 | -0.0165 | -0.098 | 0.0709 | -0.0138 | -0.0112 | 0.112 | 0.0103 | -0.0257 | 0.0086 | -0.0312 | 0.0485 | -0.0612 | -0.0373 | 0.0063 | -0.137 | -0.0198 | 0.0084 |
| CC1(C)CCC(CN2CCN(c3ccc(C(=O)NS(=O)(=O)c4ccc(NCC5CCOCC5)c([N+](=O)[O-])c4)c(Oc4cnc5[nH]ccc5c4)c3)CC2)=C(c2ccc(Cl)cc2)C1 [Venetoclax] + CN(C)CCCOc1ccc(-c2ccc3ncc4c(c3c2)n(C2CCOCC2)c(=O)n4C)cn1 [AZD0156] (first compound max 1 µM, 7x7, partner max 1 µM) | -0.0501 | -0.0332 | -0.0067 | -0.0128 | 0.0216 | 0.0042 | -0.0314 | 0.0055 | 0.037 | -0.0201 | 0.0042 | 0.0137 | -0.0549 | -0.0005 | 0.0509 | -0.0096 | -0.0292 | 0.0008 | -0.0161 | -0.0313 |
| CC1(C)CCC(CN2CCN(c3ccc(C(=O)NS(=O)(=O)c4ccc(NCC5CCOCC5)c([N+](=O)[O-])c4)c(Oc4cnc5[nH]ccc5c4)c3)CC2)=C(c2ccc(Cl)cc2)C1 [Venetoclax] + COc1cc(Nc2ncc3c(n2)-c2ccc(Cl)cc2C(c2c(F)cccc2OC)=NC3)ccc1C(=O)O [Alisertib] (first compound max 1 µM, 7x7, partner max 10 µM) | -0.0547 | -0.0705 | -0.0319 | -0.0463 | 0.0661 | 0.163 | -0.0539 | 0.0047 | 0.0304 | -0.0869 | -0.0541 | 0.161 | -0.0712 | 0.0434 | -0.0398 | 0.0544 | -0.0185 | -0.0436 | -0.0072 | -0.0077 |
| CC1(C)CCC(CN2CCN(c3ccc(C(=O)NS(=O)(=O)c4ccc(NCC5CCOCC5)c([N+](=O)[O-])c4)c(Oc4cnc5[nH]ccc5c4)c3)CC2)=C(c2ccc(Cl)cc2)C1 [Venetoclax] + C[C@@H]1COCCN1C2=NC(=NC(=C2)C3(CC3)[S@](=N)(=O)C)C4=C5C=CNC5=NC=C4 [AZD6738] (first compound max 1 µM, 7x7, partner max 10 µM) | -0.0458 | -0.0247 | -0.003 | -0.013 | -0.0183 | -0.0088 | -0.119 | -0.0127 | 0.0082 | -0.0176 | -0.009 | 0.028 | -0.0293 | 0.0144 | 0.0418 | 0.0449 | -0.0327 | 0.0001 | -0.105 | -0.0604 |
| CC1(C)CCC(CN2CCN(c3ccc(C(=O)NS(=O)(=O)c4ccc(NCC5CCOCC5)c([N+](=O)[O-])c4)c(Oc4cnc5[nH]ccc5c4)c3)CC2)=C(c2ccc(Cl)cc2)C1 [Venetoclax] + C[C@@H](Nc1cc(F)cc(F)c1)c1cc(C(=O)N(C)C)cc2c(=O)cc(N3CCOCC3)oc12 [AZD8186] (first compound max 1 µM, 7x7, partner max 3 µM) | -0.0557 | -0.0747 | -0.0419 | -0.0487 | -0.021 | 0.0129 | -0.0112 | -0.04 | 0.106 | -0.041 | -0.0248 | 0.027 | -0.0975 | 0.0269 | -0.0097 | 0.201 | -0.0215 | 0.0218 | -0.0706 | -0.0187 |
| CC1(C)CCC(CN2CCN(c3ccc(C(=O)NS(=O)(=O)c4ccc(NCC5CCOCC5)c([N+](=O)[O-])c4)c(Oc4cnc5[nH]ccc5c4)c3)CC2)=C(c2ccc(Cl)cc2)C1 [Venetoclax] + Cc1cc2ncnn2cc1Nc1ncc2c(n1)n(C1CCOCC1)c(=O)n2C [AZD7648] (first compound max 1 µM, 7x7, partner max 10 µM) | -0.0529 | -0.0705 | -0.0563 | -0.0235 | -0.0389 | 0.0097 | -0.038 | -0.0041 | 0.0002 | -0.0318 | -0.011 | 0.0588 | -0.0531 | -0.0394 | 0.0424 | 0.0482 | -0.0288 | -0.0007 | -0.0266 | -0.0672 |
| CC1(C)CCC(CN2CCN(c3ccc(C(=O)NS(=O)(=O)c4ccc(NCC5CCOCC5)c([N+](=O)[O-])c4)c(Oc4cnc5[nH]ccc5c4)c3)CC2)=C(c2ccc(Cl)cc2)C1 [Venetoclax] + Cn1cnc2c(F)c(Nc3ccc(Br)cc3Cl)c(C(=O)NOCCO)cc21 [Selumetinib] (first compound max 1 µM, 7x7, partner max 3 µM) | -0.0491 | -0.0165 | -0.0129 | -0.0481 | -0.0967 | -0.0032 | -0.0472 | 0.0203 | -0.0428 | -0.0738 | -0.0012 | -0.0159 | -0.0298 | -0.017 | 0.0233 | 0.0372 | -0.0377 | 0.0065 | -0.0332 | -0.006 |
